The structures appear in SMILES notation. Where two headings read alike, the source gives them in different places. Some results are limits rather than exact numbers.

Assay [1] addresses T1, lactate dehydrogenase (LDH) (Oryctolagus cuniculus, UniProt P13491).
T1 construct: 10 μl of LDH from Rabbit Muscle; from tissue; host or cells: rabbit muscle
Description: LDH kinetic assay, spectrophotometric oxidation of NADH (340 nm). Format: biochemical, Rabbit. To be noted: for IC50: common ligand mimics, Examples 23/24, LDH from Rabbit Muscle. The method, then: For LDH analysis, the compounds were screened using a kinetic protocol that spectrophotometrically evaluates oxidation of NADH.
(§1) Stock solutions of each of the reagents were prepared in the following concentrations. Dilutions of the stock solutions were prepared prior to running the assay in the concentrations indicated below.
The LDH reaction was monitored at 340 nm prior to and after addition of the inhibitor to detect background reaction with the inhibitor. Solutions of 100 μl of the inhibitors in DMSO were prepared to provide a final DMSO concentration of 5% of the total assay volume. These solutions were incubated for 6 minutes at 25° C. in a 990 μl of a solution containing 0.1 M HEPES, pH 7.4, 10 μM NADH, and 2.5 mM of pyruvate. The reaction was then initiated with 10 μl of LDH from Rabbit Muscle (0.5 μg/ml; 1:2000 dilution of 1.0 mg/ml). After the enzyme was added, the solution was mixed for 20 seconds, and the reaction was run for 10 minutes. After a 50 second lag, the samples were read in a Cary spectrophotometer at 340 nm. Reading of the samples was continued until 300 seconds. Cuvette #1 contained the control reaction (no inhibitor), and cuvette #2 contained the positive control reaction in which Cibacron Blue at 10.3 μM was substituted for inhibitor to yield 50 to 70% inhibition. The substrate was kept at a level at least 10 times the Km.

In assay [2] the target is glyceraldehyde-3-phosphate dehydrogenase (GAPDH) (Escherichia coli, UniProt P0A9B2). Description: GAPDH kinetic assay, spectrophotometric reduction of NAD+ (340 nm). Format: biochemical, E. coli. The note with it: for inhibition of GAPDH (in words): Example 24 (FIG. 6). The method, then:
For GAPDH analysis, the compounds were screened using a kinetic protocol that spectrophotometrically evaluates reduction of NAD+.
as §1
The GAPDH reaction was monitored at 340 nm prior to and after addition of the inhibitor to detect background reaction with the inhibitor. Solutions of 100 μl of the inhibitors incubated for 6 minutes at 25° C. in a 990 μl of a solution containing 125 mM triethanolamine, pH 7.5, 145 μM glyceraldehyde 3-phosphate (GAP), 0.211 mM NAD, 5 mM sodium arsenate, and 3 mM β-metcaptoethanol (2-BME). The reaction was then initiated with 10 μl of E. coli GAPDH (1:200 dilution of 1.0 mg/ml). After the enzyme was added, the solution was mixed for 20 seconds, and the reaction was run for 10minutes. After a 50 second lag, the samples were read in a Cary spectrophotometer at 340 nm. Reading of the samples was continued until 300 seconds. The final concentration of DMSO in a cuvette was about 5% of the total assay volume. Cuvette #1 contained the control reaction (no inhibitor).
GAP for use in this experiment was deprotected from the diethyl acetal in the following manner. Water was boiled in recrystallizing dish. Dowex (1.5 mg) and GAP (200 mg; SIGMA G-5376) were weighed and placed in a 15 ml conical tube. The Dowex and GAP were resuspended in 2 ml dH2O, followed by shaking of the tube until the GAP dissolved. The tube was then immersed, while shaking, in the boiling water for 3 minutes. Next, the tube was placed in an ice bath to cool for 5 minutes. As the sample cooled, a resin settled to the bottom of the test tube, allowing removal of the supernatant with a pasteur pipette. The supernatant was filtered through a 0.45 or 0.2 μM cellulose acetate syringe filter.
The filtered supernatant was retained, and another 1 ml of dH2O was added to the resin tube. The tube was then shaken and centrifuged for 5 minutes at 3,000 rpm. The supernatant was again removed with a pasteur pipette and passed through a 0.45 or 0.2 μM cellulose acetate syringe filter. The two supernatant aliquots were then pooled to provide a total GAP concentration of about 50 mM. The GAP was then divided into 100 μl aliquots and stored at −20° C. until use.

Assay [3] has as its target inosine-5′-monophosphate dehydrogenase (IMPDH). Description: IMPDH kinetic assay, spectrophotometric reduction of NAD+ (340 nm). Type of assay: biochemical. The note with it: for IC50: common ligand mimics, Examples 23/24. The method, then:
For IMPDH analysis, the compounds were screened using a kinetic protocol that spectrophotometrically evaluates reduction of NAD+.
as §1
The IMPDH reaction was monitored at 340 nm prior to and after addition of the inhibitor to detect background reaction with the inhibitor. Solutions of 100 μl of the inhibitors in DMSO were prepared to provide a final DMSO concentration of 5% of the total assay volume. These solutions were incubated for 6 minutes at 37° C. in a 992 μl of a solution containing 0.1 M Tris-HCl, pH 8.0, 0.25 M KCl, 0.3% glycerol, 30 μM NAD+, and 600 μM IMP (inosine monophosphate). The reaction was then initiated with 8 μl of IMPDH (0.75 μg/ml). After the enzyme was added, the solution was mixed for 20 seconds, and the reaction was run for 10 minutes. After a 50 second lag, the samples were read in a Cary spectrophotometer at 340 nm. Reading of the samples was continued until 300 seconds. Cuvette #1 contained the control reaction (no inhibitor), and cuvette #2 contained the positive control reaction in which Cibacron Blue was substituted for inhibitor. The substrate was kept at a level at least 10 times the Km.

Sequence of glyceraldehyde-3-phosphate dehydrogenase (GAPDH) (P0A9B2 whole entry): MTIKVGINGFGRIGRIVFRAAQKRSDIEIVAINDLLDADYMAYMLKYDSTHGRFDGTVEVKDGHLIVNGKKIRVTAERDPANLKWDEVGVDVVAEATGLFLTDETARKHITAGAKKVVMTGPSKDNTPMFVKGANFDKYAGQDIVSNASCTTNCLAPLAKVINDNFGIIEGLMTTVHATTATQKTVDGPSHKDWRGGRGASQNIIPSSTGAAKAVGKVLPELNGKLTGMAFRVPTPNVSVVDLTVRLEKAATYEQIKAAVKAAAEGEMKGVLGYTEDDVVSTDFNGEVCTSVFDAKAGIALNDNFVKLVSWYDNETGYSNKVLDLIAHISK

Turning to `N=C1NC(=O)C(=Cc2ccc(C(=O)O)cc2)S1` [4-(2-imino-4-oxo-thiazolidin-5-ylidenemethyl)-benzoic acid], the 50% inhibitory concentration (IC50) in assay [1] was greater than 100 µM; in assay [2] (common ligand mimics, Examples 23/24, E. coli GAPDH, read-out: IC50 for GAPDH), greater than 100 µM; in assay [3], greater than 40 µM. The “inhibition of GAPDH (in words)” value in assay [2] is listed as “no inhibition”.
For the compound `COc1cc(O)ccc1C=C1SC(=N)NC1=O` [5-(4-hydroxy-2-methoxy-benzylidene)-2-imino-thiazolidin-4-one], in assay [2], the “inhibition of GAPDH (in words)” value is recorded as “no inhibition”. For the same compound, the “inhibition of IMPDH (in words)” value in assay [3] (Example 24 (FIG. 6)) is reported as “no inhibition”.
For `COc1cc(C=C2SC(N)=NC2=O)ccc1O` [5-(4-hydroxy-3-methoxy-benzylidene)-2-imino-thiazolidin-4-one], the IC50 in assay [1] and in assay [3] was greater than 100 µM each time.
`N=C1NC(=O)C(=Cc2ccc(O)c([N+](=O)[O-])c2)S1` [5-(4-hydroxy-3-nitro-benzylidene)-2-imino-thiazolidin-4-one]: the IC50 in assay [1] was 27.9 µM; in assay [2], 153 µM; in assay [3] it was greater than 75 µM.
In the case of `Nc1c(S(=O)(=O)O)cc(Nc2ccc(Nc3nc(Cl)nc(Nc4ccccc4S(=O)(=O)O)n3)c(S(=O)(=O)O)c2)c2c1C(=O)c1ccccc1C2=O` [Cibacron Blue, reference compound], the inhibition at 10.3 µM in assay [1] (Cibacron Blue at 10.3 μM, read-out: inhibition of LDH, positive control) lay within 50 to 70%.

By IC50 is commonly meant the concentration that gives 50% inhibition. By inhibition is commonly meant the share of the control response that was lost under treatment.

These data come from patent US20050019825A9, “Common ligand mimics: pseudothiohydantoins” (priority 2002, published 2005).
